In patent US20240150321A1, “PYRAZOLYLSULFONAMIDE COMPOUNDS AND THEIR USE IN THERAPY” (HOTSPOT THERAPEUTICS, INC., priority 2022, published 2024) one finds IC50 data, which are given here for 23 compounds.

Like-named read-outs stand apart in the source and are kept apart here.

One assay concerns the target Avi-tagged FL MALT-1 (Homo sapiens (Human), UniProt Q9UDY8). The assay can be described thus: MALT-1 Fluorogenic Peptide Cleavage Assay (MALT1 inhibition assay). It is filed as biochemical. The note with it: Ac-LRSR-AMC peptide substrate, 30 min pre-incubation, 90 min reaction at room temperature. The gist of the method: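 Full-length Avi-tagged human MALT-1 (40 nM working stock) pre-incubated 30 min at RT with compound in 25 mM HEPES pH 6.89, 660 mM sodium citrate, 1 mM TCEP, […], 0.05% CHAPS, 2% DMSO. Ac-LRSR-AMC added at Km (50 μM working stock) or 10×Km (280 μM working stock); 90 min at RT, AMC fluorescence (ex 342/em 441 nm), IC50 from % inhibition curves.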

Assay [1] has as its system NF-kB reporter in Jurkat cells. The assay can be described thus: NF-kB reporter assay in Jurkat cells stimulated with aCD3/aCD28/PMA. It is filed as cell-based. The note with it: read-out: NF-kB Reporter Assay IC50. The gist of the method: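 Jurkat cells (25,000/well, serum-free RPMI) were pre-incubated 1 h at 37° C with serially diluted compound, then stimulated 4 h with aCD3/aCD28/PMA at final […]. NF-kB reporter activity was read by One-Glo luminescence; IC50 values reported.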
For orientation: Reporter assays use an easily measured gene product as a stand-in for the process of interest.

Setting [2] is: Jurkat cells, 1 hr compound pre-incubation, aCD3/aCD28/PMA stimulation 4 hr, One-Glo readout.
[3] abbreviates: Homo sapiens, Jurkat cells, 1 hr compound pre-incubation, aCD3/aCD28/PMA stimulation 4 hr, One-Glo readout.

As usually defined, the IC50 is the concentration at which inhibition is half-maximal.

Avi-tagged FL MALT-1, sequence (Q9UDY8 whole entry): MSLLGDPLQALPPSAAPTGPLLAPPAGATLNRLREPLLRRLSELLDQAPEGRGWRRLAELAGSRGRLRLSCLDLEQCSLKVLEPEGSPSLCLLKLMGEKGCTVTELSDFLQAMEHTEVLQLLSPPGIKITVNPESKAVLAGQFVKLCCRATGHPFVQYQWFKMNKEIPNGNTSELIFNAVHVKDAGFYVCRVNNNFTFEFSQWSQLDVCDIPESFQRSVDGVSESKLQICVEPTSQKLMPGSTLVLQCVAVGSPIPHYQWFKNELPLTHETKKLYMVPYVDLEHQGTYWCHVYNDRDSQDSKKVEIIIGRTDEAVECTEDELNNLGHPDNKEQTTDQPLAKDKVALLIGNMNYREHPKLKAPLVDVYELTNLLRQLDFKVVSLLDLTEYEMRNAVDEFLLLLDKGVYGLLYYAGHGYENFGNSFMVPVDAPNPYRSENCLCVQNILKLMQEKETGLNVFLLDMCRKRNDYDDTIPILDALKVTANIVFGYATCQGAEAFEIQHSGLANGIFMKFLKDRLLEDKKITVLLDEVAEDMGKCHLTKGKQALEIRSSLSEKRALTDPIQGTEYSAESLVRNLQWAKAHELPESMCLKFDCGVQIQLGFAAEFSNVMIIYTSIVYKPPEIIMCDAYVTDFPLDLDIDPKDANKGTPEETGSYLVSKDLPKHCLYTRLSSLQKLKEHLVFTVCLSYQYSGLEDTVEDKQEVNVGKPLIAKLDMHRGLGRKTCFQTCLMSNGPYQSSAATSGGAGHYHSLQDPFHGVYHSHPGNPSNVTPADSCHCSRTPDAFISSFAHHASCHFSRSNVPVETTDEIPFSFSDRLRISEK

With `COC1(c2ccnc(-n3cc(S(=O)(=O)Nc4cccc5cnn(C)c45)cn3)c2)CC(C)C1` (stereo not shown) [Compound I-363, 1-(4-(1-methoxy-3-methylcyclobutyl)pyridin-2-yl)-N-(1-methyl-1H-indazol-7-yl)-1H-pyrazole-4-sulfonamide], the half-maximal inhibitory concentration (IC50) at Avi-tagged FL MALT-1 was above 2500 nM; in assay [1] (setting [2]), below 400 nM.
For `Cn1ncc2cccc(NS(=O)(=O)c3cnn(-c4cc(C5(F)CC(F)C5)ccn4)c3)c21` (stereo not shown) [Compound I-366, 1-(4-(1,3-difluorocyclobutyl)pyridin-2-yl)-N-(1-methyl-1H-indazol-7-yl)-1H-pyrazole-4-sulfonamide], in that order: above 2500 nM and below 400 nM.
`Cn1ncc2cccc(NS(=O)(=O)c3cnn(-c4cc(N5CC(C)(C)C5)ccn4)c3)c21` [Compound I-367]: the IC50 against Avi-tagged FL MALT-1 is above 2500 nM; in assay [1] (setting [3]) it was below 400 nM.
Turning to `Cn1ncc2cccc(NS(=O)(=O)c3cnn(-c4cc(N5CC6(CC6)C5)ccn4)c3)c21` [Compound I-368, 1-(4-{5-azaspiro[2.3]hexan-5-yl}pyridin-2-yl)-N-(1-methylindazol-7-yl)pyrazole-4-sulfonamide], the figures for the 50% inhibitory concentration (IC50) (at Avi-tagged FL MALT-1; in assay [1] (setting [3])) were above 2500 nM and below 400 nM, respectively.
For `COc1ccc2cnn(C)c2c1NS(=O)(=O)c1cnn(-c2cc(N3CC(C)C3)ccn2)c1` [Compound I-369], in that order: above 2500 nM and below 400 nM.
On the same counts, the results for `COc1ccc2cnn(C)c2c1NS(=O)(=O)c1cnn(-c2cc(N3CC(C)(C)C3)ccn2)c1` [Compound I-370, 1-[4-(3,3-dimethylazetidin-1-yl)pyridin-2-yl]-N-(6-methoxy-1-methylindazol-7-yl)pyrazole-4-sulfonamide] are above 2500 nM and below 400 nM.
For `COc1ccc2cnn(C)c2c1NS(=O)(=O)c1cnn(-c2cc(N3CC4(CC4)C3)ccn2)c1` [Compound I-371, 1-(4-(5-azaspiro[2.3]hexan-5-yl)pyridin-2-yl)-N-(6-methoxy-1-methyl-1H-indazol-7-yl)-1H-pyrazole-4-sulfonamide], in that order: above 2500 nM and below 400 nM.
Turning to `COc1ccc2cnn(C)c2c1NS(=O)(=O)c1cnn(-c2cc(N3CCCCC3)ccn2)c1` [Compound I-372], the figures for the concentration for half-maximal inhibition (IC50) (at Avi-tagged FL MALT-1; in assay [1] (setting [3])) were 1000 to 2500 nM and below 400 nM, respectively.
In the case of `COc1ccc2cnn(C)c2c1NS(=O)(=O)c1cnn(-c2cc(N3CCC3)ccn2)c1` [Compound I-373, 1-(4-(azetidin-1-yl)pyridin-2-yl)-N-(6-methoxy-1-methyl-1H-indazol-7-yl)-1H-pyrazole-4-sulfonamide], the concentration for half-maximal inhibition (IC50) against Avi-tagged FL MALT-1 was at most 400 nM; in assay [1] (Homo sapiens, Jurkat) it was below 400 nM.
Turning to `Cn1ncc2cccc(NS(=O)(=O)c3cnn(-c4cc(C5CC(O)C5)ccn4)c3)c21` (stereo not shown) [Compound I-374, 1-(4-(3-hydroxycyclobutyl)pyridin-2-yl)-N-(1-methyl-1H-indazol-7-yl)-1H-pyrazole-4-sulfonamide], the concentration for half-maximal inhibition (IC50) against Avi-tagged FL MALT-1 was above 2500 nM; in assay [1] (setting [3]), below 400 nM.
For `Cn1ncc2cccc(NS(=O)(=O)c3cnn(-c4cc(N5CC6CC6C5)ccn4)c3)c21` (stereo not shown) [Compound I-375, 1-(4-(3-Azabicyclo[3.1.0]Hexan-3-yl)Pyridin-2-yl)-N-(1-Methyl-1H-Indazol-7-yl)-1H-Pyrazole-4-Sulfonamide], in that order: above 2500 nM and below 400 nM.
In the case of `Cn1ncc2cccc(NS(=O)(=O)c3cnn(-c4cc(C5(F)CC(F)C5)ccn4)c3)c21` (stereo not shown) [Compound I-376, 1-(4-(1,3-difluorocyclobutyl)pyridin-2-yl)-N-(1-methyl-1H-indazol-7-yl)-1H-pyrazole-4-sulfonamide], the concentration for half-maximal inhibition (IC50) at Avi-tagged FL MALT-1 is above 2500 nM; in assay [1] (setting [2]) it was below 400 nM.
For `O=S(=O)(c1cnn(-c2cc(C(F)(F)F)ccn2)c1)N1CCCn2ncc3cccc1c32` [Compound I-379, 1-((1-(4-(trifluoromethyl)pyridin-2-yl)-1H-pyrazol-4-yl)sulfonyl)-1,2,3,4-tetrahydro-[1,4]diazepino[3,2,1-hi]indazole], the half-maximal inhibitory concentration (IC50) is above 2500 nM against Avi-tagged FL MALT-1 and above 2500 nM in assay [1] (Homo sapiens, Jurkat).
As for `[2H]c1nn(C([2H])([2H])[2H])c2c(NS(=O)(=O)c3cnn(-c4cc(C(C)(F)F)ccn4)c3)cccc12` [Compound I-380, 1-(4-(1,1-difluoroethyl)pyridin-2-yl)-N-(1-(methyl-d3)-1H-indazol-7-yl-3-d)-1H-pyrazole-4-sulfonamide], the values for the half-inhibitory concentration (IC50) (at Avi-tagged FL MALT-1; in assay [1] (setting [3])) were 1000 to 2500 nM and below 400 nM, respectively.
On the same counts, the results for `COc1ccc2cnn(C)c2c1NS(=O)(=O)c1cnn(-c2cc(N3CCCC3)ccn2)c1` [Compound I-381, N-(6-methoxy-1-methylindazol-7-yl)-1-[4-(pyrrolidin-1-yl)pyridin-2-yl]pyrazole-4-sulfonamide] are 400 to 1000 nM and below 400 nM.
For `Cn1ncc2cccc(NS(=O)(=O)c3cnn(-c4cc(C(C)(C)C#N)ccn4)c3)c21` [Compound I-382, 1-(4-(2-cyanopropan-2-yl)pyridin-2-yl)-N-(1-methyl-1H-indazol-7-yl)-1H-pyrazole-4-sulfonamide], in that order: above 2500 nM and below 400 nM.
On the same counts, the results for `Cn1ncc2cccc(NS(=O)(=O)c3cnn(-c4cc(C5(F)CC(F)(F)C5)ccn4)c3)c21` [Compound I-383, N-(1-methylindazol-7-yl)-1-[4-(1,3,3-trifluorocyclobutyl)pyridin-2-yl]pyrazole-4-sulfonamide] are above 2500 nM and below 400 nM.
For `COc1ccc2cnn(C)c2c1NS(=O)(=O)c1cnn(-c2cc(N3CCOCC3)ccn2)c1` [Compound I-384], the IC50 against Avi-tagged FL MALT-1 was above 2500 nM; in assay [1] (setting [3]), below 400 nM.
On the same counts, the results for `COc1ncc2cnn(C)c2c1NS(=O)(=O)c1cnn(-c2cc(N3CC(C)(C)C3)ccn2)c1` [Compound I-385] are above 2500 nM and below 400 nM.
Consider `COc1ncc2cnn(C)c2c1NS(=O)(=O)c1cnn(-c2cc(N3CC4(CC4)C3)ccn2)c1` [Compound I-386, 1-(4-(5-azaspiro[2.3]hexan-5-yl)pyridin-2-yl)-N-(6-methoxy-1-methyl-1H-pyrazolo[4,3-c]pyridin-7-yl)-1H-pyrazole-4-sulfonamide], for which the 50% inhibitory concentration (IC50) against Avi-tagged FL MALT-1 was above 2500 nM; in assay [1] (setting [3]) it was below 400 nM.
For `COc1ncc2cnn(C)c2c1NS(=O)(=O)c1cnn(-c2cc(N3CCCCC3)ccn2)c1` [Compound I-387, N-(6-methoxy-1-methyl-1H-pyrazolo[4,3-c]pyridin-7-yl)-1-(4-(piperidin-1-yl)pyridin-2-yl)-1H-pyrazole-4-sulfonamide], the half-maximal inhibitory concentration (IC50) was above 2500 nM against Avi-tagged FL MALT-1 and below 400 nM in assay [1] (setting [3]).
For `COc1ncc2cnn(C)c2c1NS(=O)(=O)c1cnn(-c2cc(N3CCC3)ccn2)c1` [Compound I-388, 1-[4-(azetidin-1-yl)pyridin-2-yl]-N-{6-methoxy-1-methylpyrazolo[4,3-c]pyridin-7-yl}pyrazole-4-sulfonamide], in that order: 400 to 1000 nM and below 400 nM.
Consider `Cn1ncc2cccc(NS(=O)(=O)c3cnn(-c4cc(N5CC6CC(C6)C5)ccn4)c3)c21` [Compound I-389, 1-(4-(3-Azabicyclo[3.1.1]Heptan-3-yl)Pyridin-2-yl)-N-(1-Methyl-1H-Indazol-7-yl)-1H-Pyrazole-4-Sulfonamide], for which the values for the IC50 (against Avi-tagged FL MALT-1; in assay [1] (setting [3])) were above 2500 nM and below 400 nM, respectively.
